{"source": "the SangsterLogP compilation", "assay": "method code SF, from DOI: 10.1246/bcsj.55.1489", "details": "pH 7.0"}
{"smiles": "COc1cc(-n2nc(C)cc2OC)ncn1", "values": [{"measurement": "logD", "result": 1.53}]}
{"smiles": "COc1cc(-n2c(=O)cc(C)n2C)ncn1", "values": [{"measurement": "logD", "result": 0.3}]}
{"smiles": "COc1cc(C)nn1-c1nc(C)cc(C)n1", "values": [{"measurement": "logD", "result": 0.73}]}
{"smiles": "COc1cc(C)n(-c2ccncn2)n1", "values": [{"measurement": "logD", "result": 2.21}]}
{"smiles": "COc1cc(-n2c(=O)cc(C)n2C)nc(C)n1", "values": [{"measurement": "logD", "result": 0.7}]}
{"smiles": "COc1ccnc(-n2nc(C)cc2OC)n1", "values": [{"measurement": "logD", "result": 1.01}]}
{"smiles": "COc1cc(C)n(-c2nc(C)cc(C)n2)n1", "values": [{"measurement": "logD", "result": 1.82}]}
{"smiles": "COc1cc(-n2c(C)cc(=O)n2C)nc(C)n1", "values": [{"measurement": "logD", "result": 0.38}]}
{"smiles": "Cc1cc(-n2c(=O)cc(C)n2C)nc(C)n1", "values": [{"measurement": "logD", "result": 0.24}]}
{"smiles": "COc1cc(C)nn1-c1ccncn1", "values": [{"measurement": "logD", "result": 0.5}]}
{"smiles": "COc1cc(-n2nc(C)cc2OC)nc(OC)n1", "values": [{"measurement": "logD", "result": 1.86}]}
{"smiles": "Cc1cc(C)nc(-n2c(C)cc(=O)n2C)n1", "values": [{"measurement": "logD", "result": 0.51}]}
{"smiles": "COc1nc(C)cc(-n2[nH]c(C)cc2=O)n1", "values": [{"measurement": "logD", "result": 1.03}]}
